# According to patent US20230293491A1, “COMPOSITIONS AND METHODS FOR DIAGNOSIS AND TREATMENT OF CONDITIONS RELATED TO THE QUALITY OF AGING AND LONGEVITY” (EPITRACKER, INC., priority 2020, published 2023):
# Target: T1, α-2 adrenoreceptor (Homo sapiens, UniProt P08913)
# T1 construct: purchased Eurofins/DiscoverX SafetyScan47 panel
# T1 sequence (P08913 1-465): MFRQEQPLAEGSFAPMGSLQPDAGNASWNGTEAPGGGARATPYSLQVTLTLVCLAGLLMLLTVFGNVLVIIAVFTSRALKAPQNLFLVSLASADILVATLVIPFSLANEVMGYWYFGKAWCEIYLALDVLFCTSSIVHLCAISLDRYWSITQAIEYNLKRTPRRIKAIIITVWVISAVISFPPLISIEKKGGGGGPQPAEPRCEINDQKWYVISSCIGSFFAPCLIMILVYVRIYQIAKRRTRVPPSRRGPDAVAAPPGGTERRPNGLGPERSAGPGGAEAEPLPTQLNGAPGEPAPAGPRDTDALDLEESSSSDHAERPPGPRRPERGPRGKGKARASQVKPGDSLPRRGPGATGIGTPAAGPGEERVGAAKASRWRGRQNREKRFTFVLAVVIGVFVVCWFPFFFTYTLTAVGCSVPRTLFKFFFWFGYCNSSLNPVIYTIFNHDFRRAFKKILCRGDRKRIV
# Test: Eurofins/DiscoverX SafetyScan47 panel, α-2 adrenoreceptor agonist activity
# Format: cell-based
# Conditions: compared to UK 14304 control; between 3 nM and 6.7 µM
# Description: Given the associations between increased histidine betaine and improved health in the dolphin model, it was hypothesized that histidine betaine has direct therapeutic activities. To test this hypothesis, the Eurofins/DiscoverX SafetyScan47 panel was used to test histidine betaine at 10 concentrations for agonist and antagonist activities across 76 assays and 47 genes and targets that are relevant to compound safety and mechanisms of action, including G-protein coupled receptors, kinases, transporters, ion channels, nuclear receptors, and non-kinase enzymes. Detailed methods used for these assays and assay readouts are available from Eurofins/DiscoverX.
# Of 47 pharmacological targets tested for activity with histidine betaine, the following had partial activities, achieving at least 15% that of internal positive controls between 3 nM and 6.7 µM: α-2 adrenoreceptor agonist (maximum activity = 27% compared to UK 14304 control), and cyclooxygenase-1 (COX1) inhibitor (maximum activity = 23% compared to indomethacin control) (FIG. 4).
smiles,measurement,value
C[N+](C)(C)C(Cc1cnc[nH]1)C(=O)[O-] (stereo not shown) [histidine betaine],"maximum activity, α-2 adrenoreceptor agonist",27%
